Assay results from patent publication US20020168389A1, “Stable skin conditioning compositions containing retinoid boosters” (priority 2000, published 2002).
pIC50: −log10 of the molar value.

Columns and labels:
TGase I = assay: Transglutaminase (TGase I ELISA) assay in cultured keratinocytes with retinol; format: cell-based; details: Keratinocyte, read-out: Overall TG (IC 50)
Retinal Reductase = assay: Assay for Retinal Reductase Activity, rat liver microsomes (to identify B3); format: biochemical; details: test compound final 100 μM
Experimental: The resulting homogenate was successively centrifuged for 30 min. at 10,000 g, 30 min. at 20,000 g, and 15 min. at 30,000 g, and the resulting supernatant was ultracentrifuged for 80 min. at 105,000 g. […] Protein concentrations were determined as described above. […] All stock solution were prepared as above with the following substitutions: 10 mM all trans Retinaldehyde (Sigma R2500) in DMSO—instead of retinol. 200 mM, Nicotinamide adenine dinucleotide phosphate, reduced form, tetrasodium salt (NADPH) (Sigma N7505) in sterile water—instead of NADP. In a two-dram glass vial with screw cap, add the following in order: […] 25 μl diluted Microsomes (final=100 μg)—use boiled Microsomes for controls and regular Microsomes for test samples. […] 3 μl of 10 mM retinaldehyde (final=75 μM) Follow the same incubation and extraction procedure as detailed above. […] Aliquots of 60 μL were injected immediately and analyzed for retinoid content. The chromatography instrumentation consisted of a Waters 600 gradient controller/pump, a Waters 996 Photodiode Array detector and a Waters 474 Scanning Fluorescence detector. Two HPLC protocols were used for retinoid analysis. […] The eluate was monitored for absorbance at 325 nm and fluorescence at 325 ex/480 em. […] B. Barua, “Analysis of Water-Soluble Compounds: Glucuronides”, Methods Enzymol. 189, 136-145 (1990). […] These protocols were selected based on their ability to clearly resolve pertinent retinoid acids, alcohols, aldehydes, and/or esters for each assay and relative quickness of separation. Identification of individual retinoids by HPLC was based on an exact match of the retention time of unknown peaks with that of available authentic retinoid standards and UV spectra analysis (300-400 nm) of unknown peaks against available authentic retinoids.

Retinol Dehydrogenase = assay: Assay for Retinol Dehydrogenase Activity, rat liver microsomes (to identify B2); format: biochemical; details: ranking among B2 compounds
Experimental: The resulting homogenate was successively centrifuged for 30 min. at 10,000 g, 30 min. at 20,000 g, and 15 min. at 30,000 g, and the resulting supernatant was ultracentrifuged for 80 min. at 105,000 g. […] Protein concentrations were determined as described above.
2.4 Assay for Retinol Dehydrogenase Activity (To identify B2)
The following stock solutions were prepared:
50 mM KH2PO4, pH 7.4 buffer, sterile filtered.
10 mM all trans Retinol (Sigma R7632) in DMSO.
200 mM Nicotinamide adenine dinucleotide phosphate, sodium salt (NADP) (Sigma N0505) in sterile water.
40 mM test compound in appropriate solvent (water, buffer, ethanol, chloroform or DMSO).
1:10 dilution of rat liver Microsomes in 50 mM KH2PO4, pH 7.4 buffer (4 ug/ul).
In a two-dram glass vial with screw cap, add the following in order:
Buffer to give a final volume of 400 μl
25 μl diluted Microsomes (final=100 μg)−use boiled Microsomes for controls and regular Microsomes for test samples.
4 μl of 200 mM NADP (final=2 mM)
1 μl of 40 mM test compound (final=100 μM)
8 μl of 10 mM retinol (final=200 μM) […]
Aliquots of 60 μL were injected immediately and analyzed for retinoid content.
The chromatography instrumentation consisted of a Waters 600 gradient controller/pump, a Waters 996 Photodiode Array detector and a Waters 474 Scanning Fluorescence detector. […] The eluate was monitored for absorbance at 325 nm and fluorescence at 325 ex/480 em. […]

Compound | % lnhibition Retinal Reductase (Retinal Reductase) | also measured
Oc1cccc2cccnc12 [Hydroxyquinoline, Hydroxyquinoline (Carbostyril)] |  | pIC50 (TGase I): 3.44
Phosphatidyl Choline |  | activity as activator of Retinol Dehydrogenase (in words) (Retinol Dehydrogenase): Most preferred as most active activator of

Second part, led by results:

% lnhibition Retinal Reductase (Retinal Reductase) | Compound | also measured
26% | CCCCCCCCCCCCCC(=O)O [Myristic Acid] | 
6% | COc1cc(C=O)ccc1O [Vanillin] | 
37% | Phosphatidyl ethanolamine | 
